Key:
Assay type in all cases: cell-based
IL-6 = IL-6 cytokine secretion by TNFα-stimulated primary human hepatic stellate cells (ELISA); conditions: for IL-6 cytokine secretion, per-cell normalized, fold change from plasma amino acid background: primary human hepatic stellate cells, two donors, TNFα 3 ng/mL, 12 hours
Protocol: (§1) Primary human hepatic stellate cells were obtained from Samsara Sciences and grown in Complete HSC Medium to […] confluence in T75 or T150 flasks below passage 10 were seeded into 96-well plates and incubated for 6 hours at 37° C., 5% CO2 in a humidified incubator. After 6 hours, plates were removed from the incubator washed with DPBS and pretreated (±single amino acid dropout, ±supplemental amino acid dose; see experiment for medium composition) overnight, ˜14-15 hours. After overnight pretreatment, the medium was removed from the cells, and the same pretreatment medium, now supplemented with 3 ng/mL TNFα was applied. Plates were incubated for 12 hours at 37° C., 5% CO2. After 12 hour stimulus with TNFα, supernatant was removed and frozen at −80° C. in two separate aliquots. Plates were washed and incubated with CCK-8 viability reagent (Dojindo) for 1 hour. Viability was measured on the Synergy plate reader. Immediately, the medium was removed and the plates were fixed for immunofluorescence staining.
(§2) Human CCL2/MCP1 and Human IL-6 were measured by ELISA (Human […] DuoSet ELISA, R&D Systems; Human IL-6 DuoSet ELISA, R&D Systems) at ⅕ and 1/20 dilution in 1× Reagent Diluent (Reagent Ancillary Kit 2, R&D Systems). Data were normalized to the specific per well cell density determined by Hoechst stained nuclei count.
Tables 39-42 show per-cell normalized IL-6 cytokine secretion in primary human hepatic stellate cells from two donors as a fold change from the plasma amino acid background. Statistical significance calculated by one-way ANOVA with Dunnett's multiple comparison test within each treatment group.

TNFα = assay: LPS-induced TNFα secretion in primary human monocyte-derived macrophages (ELISA); parameters: TNFa Measurements Mean: unit not given here; conditions: for TNFa Measurements Mean: Donor 1, LPS 0.15 ng/mL; for TNFa Measurements Mean / Donor 2 TNFa Measurements Mean / Donor 3 TNFa Measurements Mean: baseline subtracted
Protocol: Unpurified buffy coats (Research Blood Components) were carefully poured into 50 mL centrifuge tubes and diluted with room temperature Dulbecco's Phosphate Buffered Saline (dPBS) with Calcium and Magnesium (Gibco). Diluted buffy coats were further divided into four total 50 mL centrifuge tubes at 20 mL per tube. Lymphocyte Separation Medium (Corning) was carefully pipetted to the bottom of each centrifuge tube. Mixtures were centrifuged at 850× g for 32 minutes at 20° C. with 0 deceleration and acceleration.
The PBMC layer was separated from other components after centrifugation and added to new 50 mL centrifuge tube containing 25 mL dPBS. Total volume was brought up to 50 mL with dPBS and centrifuged at 600×g for 10 minutes at 20° C. with acceleration of 9, deceleration of 5. Supernatant was carefully removed from cell pellets. The cell pellets were resuspended using 10 mL dPBS. Total volume was then brought up to 50 mL using dPBS and centrifuged at 450×g for 5 min at 20° C. with acceleration of 9, deceleration of 9. The supernatant removal and cell pellet resuspension was repeated again.
The supernatant was then carefully removed from cell pellets. Cell pellets were resuspended in 10 mL dPBS without calcium or magnesium and filtered through a 70 uM cell strainer. The total PBMC number was determined using a Cellometer K2 automated cell counter. A total of 5E6 cells were saved for flow cytometric analysis. Remaining cells were centrifuged at 490×g for 5 minutes at 20° C. with acceleration of 9, deceleration of 9.
CD14+ cells were selected using EasySep™ Human CD14 Positive Selection Kit II ([…] Technologies). Cells were resuspended in cold EasySep™ Buffer ([…] Technologies) at 1×10^8 cells/mL. A total of 100 uL/mL EasySep™ Human CD14 Positive Selection Cocktail II was added to the cell suspension, mixed, and incubated at room temperature for 10 minutes. A total of 100 uL/mL RapidSpheres were added to the mixture and incubated at room temperature for 3 minutes after mixing, then RoboSep buffer was added to bring up the total volume to 10 mL. The mixture in a 15 mL tube was placed in magnet and incubated at room temperature for 3 minutes. Supernatant was discarded and 10 mL fresh EasySep™ buffer was added to 15 mL tube. The addition of RoboSep buffer, mixing, and discarding of supernatant was repeated two more times.
Negative and positive fractions were centrifuged at 490×g for 5 minutes at 20° C. with acceleration of 9, deceleration of 9, and resuspended in DMEM (Gibco) and 10% Heat Inactivated Fetal Bovine Serum (Atlanta Bio) and Penicillin/Streptomycin. Cells were counted and centrifuged again at 490× g for 5 minutes at 20° C. with acceleration of 9, deceleration of 9. After centrifugation, cell were resuspended in DMEM (Gibco) and 10% Heat Inactivated Fetal Bovine Serum (Atlanta Bio) and Penicillin/Streptomycin containing 500 U/mL […] and plated at 1-2×10^6 cells/mL on 10 cm tissue culture plates. Cells were kept in 37° C., 5% CO2 in between feedings/harvest.
Cells were fed every 3-4 days by removing media and unattached cells, centrifuging at 490× g for 5 minutes at 20° C. with acceleration of 9, deceleration of 9, and resuspending in fresh DMEM (Gibco) and 10% Heat Inactivated Fetal Bovine Serum (Atlanta Bio) and Penicillin/Streptomycin containing GM-CSF. Resuspended cells were seeded back onto 10 cm tissue culture plates and incubated at 37° C., 5% CO2. Differentiated macrophages were used for subsequent experiments.
Primary human PMBC derived macrophages were seeded on day 0 at 3.0E4 cells per well in 96-well microplates (ThermoFisher) in Dulbecco's Modified Eagle Medium (DMEM) (Gibco) supplemented with penicillin-streptomycin (Hyclone) and 10% heat inactivated fetal bovine serum (HI-FBS) (Atlanta Bio) and incubated overnight at 37° C., 5% CO2. On day 1, cells were washed once with 150 uL per well DPBS (Gibco) and treated with 75 uL of: • a. […]

MCP-1 = MCP-1 chemokine secretion by TNFα-stimulated primary human hepatic stellate cells (ELISA); conditions: for MCP-1 chemokine secretion, per-cell normalized, fold change from plasma amino acid background: primary human hepatic stellate cells, two donors, TNFα 3 ng/mL, 12 hours
Protocol: as §1, §2
Tables 35-38 show per-cell normalized MCP-1 chemokine secretion in primary human hepatic stellate cells from two donors as a fold change from the plasma amino acid background. Statistical significance calculated by one-way ANOVA with Dunnett's multiple comparison test within each treatment group.

**Q.** With `N=C(N)NCCC[C@H](N)C(=O)O` [Arginine, L-Arginine] as the compound, how does the “Fold Change IL-6 Secretion Normalized Per Cell” value (IL-6; donor 1, Conc. 109 μM (plasma background, reference)) read?
**A.** 1.0000

**Q.** And the “Fold Change IL-6 Secretion Normalized Per Cell” value (IL-6; donor 1, Conc. 1088 μM)?
**A.** 0.9828

**Q.** What about the “Fold Change IL-6 Secretion Normalized Per Cell” value (IL-6; donor 1, Conc. 2720 μM) of the same compound?
**A.** 1.0231

**Q.** What about the “Fold Change IL-6 Secretion Normalized Per Cell” value (IL-6; donor 1, Conc. 5440 μM) of the same compound?
**A.** 0.7776

**Q.** And the “Fold Change IL-6 Secretion Normalized Per Cell” value (IL-6; donor 2, Conc. 109 μM (plasma background, reference))?
**A.** 1.0000

**Q.** What about the “Fold Change IL-6 Secretion Normalized Per Cell” value (IL-6; donor 2, Conc. 1088 μM) of the same compound?
**A.** 0.9924

**Q.** And the “Fold Change IL-6 Secretion Normalized Per Cell” value (IL-6; donor 2, Conc. 2720 μM)?
**A.** 0.9401

**Q.** What about the “Fold Change IL-6 Secretion Normalized Per Cell” value (IL-6; donor 2, Conc. 5440 μM) of the same compound?
**A.** 0.8895

**Q.** What about the “IL-6 cytokine secretion, per-cell normalized, fold change from plasma amino acid background” value (IL-6) of the same compound?
**A.** no significant effect

**Q.** What about the “TNFa Measurements Mean” value (TNFα; Conc. 109 μM (baseline)) of the same compound?
**A.** 0

**Q.** What about the “TNFa Measurements Mean” value (TNFα; Conc. 1088 μM) of the same compound?
**A.** −24.33

**Q.** And the “TNFa Measurements Mean” value (TNFα; Conc. 2720 μM)?
**A.** 5.12

**Q.** And the “TNFa Measurements Mean” value (TNFα; Conc. 5440 μM)?
**A.** 62.06

**Q.** And the “Donor 2 TNFa Measurements Mean” value (TNFα; Donor 2, Conc. 109 μM (baseline))?
**A.** 1.42E−14

**Q.** What about the “Donor 2 TNFa Measurements Mean” value (TNFα; Donor 2, Conc. 1088 μM) of the same compound?
**A.** −12.7222

**Q.** What about the “Donor 2 TNFa Measurements Mean” value (TNFα; Donor 2, Conc. 2720 μM) of the same compound?
**A.** −3.763

**Q.** What about the “Donor 2 TNFa Measurements Mean” value (TNFα; Donor 2, Conc. 5440 μM) of the same compound?
**A.** −0.5738

**Q.** What about the “Donor 3 TNFa Measurements Mean” value (TNFα; Conc. 109 μM (baseline)) of the same compound?
**A.** 3.55E−15

**Q.** What about the “Donor 3 TNFa Measurements Mean” value (TNFα; Conc. 1088 μM) of the same compound?
**A.** 3.131

**Q.** And the “Donor 3 TNFa Measurements Mean” value (TNFα; Conc. 2720 μM)?
**A.** −0.9669

**Q.** What about the “Donor 3 TNFa Measurements Mean” value (TNFα; Conc. 5440 μM) of the same compound?
**A.** −1.767

**Q.** And the “Fold Change MCP1 Secretion Normalized Per Cell” value (MCP-1; donor 3, Conc. 109 μM (plasma background, reference))?
**A.** 1.0000

**Q.** What about the “Fold Change MCP1 Secretion Normalized Per Cell” value (MCP-1; donor 3, Conc. 1088 μM) of the same compound?
**A.** 0.9435

**Q.** What about the “Fold Change MCP1 Secretion Normalized Per Cell” value (MCP-1; donor 3, Conc. 2720 μM) of the same compound?
**A.** 0.8821

**Q.** And the “Fold Change MCP1 Secretion Normalized Per Cell” value (MCP-1; donor 3, Conc. 5440 μM)?
**A.** 0.7840

**Q.** And the “Fold Change MCP1 Secretion Normalized Per Cell” value (MCP-1; donor 4, Conc. 109 μM (plasma background, reference))?
**A.** 1.0000

**Q.** What about the “Fold Change MCP1 Secretion Normalized Per Cell” value (MCP-1; donor 4, Conc. 1088 μM) of the same compound?
**A.** 1.0453

**Q.** What about the “Fold Change MCP1 Secretion Normalized Per Cell” value (MCP-1; donor 4, Conc. 2720 μM) of the same compound?
**A.** 1.0446

**Q.** And the “Fold Change MCP1 Secretion Normalized Per Cell” value (MCP-1; donor 4, Conc. 5440 μM)?
**A.** 0.9456

**Q.** What about the “MCP-1 chemokine secretion, per-cell normalized, fold change from plasma amino acid background” value (MCP-1) of the same compound?
**A.** no significant impact

**Q.** Which “Fold Change IL-6 Secretion Normalized Per Cell” value (IL-6; donor 1, Conc. 153 μM (plasma background, reference)) does the source give for `CC(C)C[C@H](N)C(=O)O` [Leucine, L-Leucine] here?
**A.** 1.0000

**Q.** What about the “Fold Change IL-6 Secretion Normalized Per Cell” value (IL-6; donor 2, Conc. 153 μM (plasma background, reference)) of the same compound?
**A.** 1.0000

**Q.** And the “IL-6 cytokine secretion, per-cell normalized, fold change from plasma amino acid background” value (IL-6)?
**A.** no significant effect

**Q.** What about the “TNFa Measurements Mean” value (TNFα; Conc. 153 μM (baseline)) of the same compound?
**A.** 0

**Q.** What about the “TNFa Measurements Mean” value (TNFα; Conc. 3054 μM) of the same compound?
**A.** 42.04

**Q.** What about the “TNFa Measurements Mean” value (TNFα; Conc. 7635 μM) of the same compound?
**A.** −23.04

**Q.** What about the “TNFa Measurements Mean” value (TNFα; Conc. 15270 μM) of the same compound?
**A.** −46.21

**Q.** What about the “Donor 2 TNFa Measurements Mean” value (TNFα; Donor 2, Conc. 153 μM (baseline)) of the same compound?
**A.** 0

**Q.** And the “Donor 2 TNFa Measurements Mean” value (TNFα; Donor 2, Conc. 3054 μM)?
**A.** 31.74

**Q.** And the “Donor 2 TNFa Measurements Mean” value (TNFα; Donor 2, Conc. 7635 μM)?
**A.** 41.98

**Q.** And the “Donor 2 TNFa Measurements Mean” value (TNFα; Donor 2, Conc. 15270 μM)?
**A.** 46.69

**Q.** And the “LPS-induced TNFα secretion” value (TNFα; macrophages, Donor 2, 0.15 ng/mL LPS)?
**A.** increased

**Q.** And the “Fold Change MCP1 Secretion Normalized Per Cell” value (MCP-1; donor 3, Conc. 153 μM (plasma background, reference))?
**A.** 1.0000

**Q.** What about the “Fold Change MCP1 Secretion Normalized Per Cell” value (MCP-1; donor 3, Conc. 3054 μM) of the same compound?
**A.** 1.1479

**Q.** What about the “Fold Change MCP1 Secretion Normalized Per Cell” value (MCP-1; donor 3, Conc. 7635 μM) of the same compound?
**A.** 1.3054

**Q.** And the “Fold Change MCP1 Secretion Normalized Per Cell” value (MCP-1; donor 3, Conc. 15270 μM)?
**A.** 1.1808

**Q.** What about the “Fold Change MCP1 Secretion Normalized Per Cell” value (MCP-1; donor 4, Conc. 153 μM (plasma background, reference)) of the same compound?
**A.** 1.0000

**Q.** What about the “MCP-1 chemokine secretion, per-cell normalized, fold change from plasma amino acid background” value (MCP-1) of the same compound?
**A.** no significant impact
